Experiments:
rice weevil = assay: Flour disk feeding bioassay; assay type: in vivo, Sitophilus oryzae (L.)
Protocol: The rice weevil [Sitophilus oryzae (L.)] was used for all bioassays. One ml of an aqueous solution containing test material was mixed with 200 mg wheat flour. Distilled water was used as a control. Approximately 100 μl of the stirred suspension were removed and placed in the bottom of a polystyrene Petri dish, and allowed to air dry overnight at room temperature to produce the flour disks. The disks were equilibrated at 30±1° C. and 70±5% r.h. for 24 hr to stabilize the moisture content. Individual weighed disks and 5 adult beetles (1 to 7 days old, starved for 24 hrs before use) were transferred to petri dishes and kept at 30±1° C. and 70±5% r.h. for 4 days (5 replicates) before the remains of the flour disk were weighed.
Saponins, characterized by their bitter taste, foaming in aqueous solutions and haemolytic activity, are a diverse group of secondary plant metabolites containing a carbohydrate moiety (mono- or oligosaccharide) attached to either a steroid (C27) or a triterpenoid (C30). Saponins are reported to have insecticidal activity. Saponin extractions were prepared from the seeds of commercial peas (Pisum sativum). Approximately 100 g seeds were milled with a Stein mill for 5 minutes and 10 g flour was extracted with 1000 ml chloroform for 16 hrs in a Soxhlet extractor to remove pigments and lipids. Three hundred mg air-dried defatted flour was refluxed for 5 min with 60 ml 80% MeOH, then transferred to a centrifuge tube with 2×5 ml 80% MeOH rinse. The slurry extracts were centrifuged at 10,000 rpm for 10 min. The pellet was dried at room temperature for testing the residual insecticidal activities and the supernatant was evaporated to 7-8 ml under reduced pressure in a rotary evaporator at 37° C. The solution and additional 3 ml distilled water rinse were applied to a reverse phase C18 cartridge (Sep Pak, C18). The column was washed with 3×5 ml 30% MeOH then eluted with 4×5 ml MeOH. The MeOH elute was evaporated to dryness in a rotary evaporator, and then dissolved in 6 ml distilled water (at a concentration equivalent to 50 mg defatted flour per ml). This extract was used for bioassay.
One ml saponin extract (50 mg equivalent/ml) was loaded on ion exchange columns (2 ml volume) with Dowex AG-SOW [H^+ ] and Dowex AG-1 [Cl^- ] respectively. The columns were eluted with 10 ml distilled water. The water elute was evaporated to dryness in a rotary evaporator, and then dissolve in 1 ml distilled water. The water fractions were used for HPLC analysis and bioassay.
The bioassays were as described in the preceding example.

S. oryzae = assay: Wheat flour disk feeding bioassay of lectins and trypsin inhibitors; assay type: in vivo; settings: for Feeding Rate (% of Control): 1% w/w in wheat flour disk; for Activity against S. oryzae: native form, 1% w/w
Protocol: Lectins and trypsin inhibitors shown in Table 20 were assayed in their native form to determine their activity against S. oryzae in the wheat flour disk bioassay.

CC1OC(OC2C(OC3C(OC4CCC5(C)C(CCC6(C)C5CC=C5C7CC(C)(C)CC(O)C7(C)CCC56C)C4(C)CO)OC(C(=O)O)C(O)C3O)OC(CO)C(O)C2O)C(O)C(O)C1O (centres unmarked) [Soyasaponin I]
Food consumption (rice weevil; 0.63 mg/g): 0.52 mg/day/insect
Food consumption, % of control (rice weevil; 0.63 mg/g): 99.8%
Food consumption (rice weevil; 1.25 mg/g): 0.44 mg/day/insect
Food consumption, % of control (rice weevil; 1.25 mg/g): 84.2%
Food consumption (rice weevil; 2.50 mg/g): 0.43 mg/day/insect
Food consumption, % of control (rice weevil; 2.50 mg/g): 82.8%
Food consumption (rice weevil; 5.00 mg/g): 0.46 mg/day/insect
Food consumption, % of control (rice weevil; 5.00 mg/g): 88.4%
Food consumption (rice weevil; 10.0 mg/g): 0.51 mg/day/insect
Food consumption, % of control (rice weevil; 10.0 mg/g): 97.9%
Activity against the test insect (rice weevil; ~0.6 mg/g and up to 10 mg/g): not active

Concanavalin A
Feeding Rate (% of Control) (S. oryzae): 82.5%
Activity against S. oryzae (S. oryzae): weakly active

Soybean trypsin inhibitor
Feeding Rate (% of Control) (S. oryzae): 98.7%
Activity against S. oryzae (S. oryzae): inactive

B1: Pea lectin: pea lectin, native form (protein, UniProt P02867 31-217; P02867 218-275, looked up)
Lectin beta chain: TETTSFLITKFSPDQQNLIFQGDGYTTKEKLTLTKAVKNTVGRALYSSPIHIWDRETGNVANFVTSFTFVINAPNSYNVADGFTFFIAPVDTKPQTGGGYLGVFNSAEYDKTTQTVAVEFDTFYNAAWDPSNRDRHIGIDVNSIKSVNTKSWKLQNGEEANVVIAFNAATNVLTVSLTYPNSLEEEN
Lectin alpha chain: VTSYTLSDVVSLKDVVPEWVRIGFSATTGAEYAAHEVLSWSFHSELSGTSSSKQAADA
Feeding Rate (% of Control) (S. oryzae): 71.4%
Activity against S. oryzae (S. oryzae): weakly active

Source: US5955082A, “Insecticidal factor from field peas” (Her Majesty the Queen in right of Canada, as represented by …, priority 1997, dated 1999)
